Measurements from ChEMBL document CHEMBL3397039, “Anti-inflammatory activity of phenolic compounds from the whole plant of Scutellaria indica” (Bioorg Med Chem Lett, 2015).

Key:
[1] = system: RAW264.7; assay: Anti-inflammatory activity in mouse RAW264.7 cells assessed as inhibition of LPS-induced nitric oxide production by Griess reaction based method; type: functional, cell-based
[2] = system: RAW264.7; assay: Toxicity against mouse RAW264.7 cells at 30 uM after 24 hrs in presence of LPS by MTT assay; type: cell-based; conditions: raw264.7, 24 h
[3] = system: RAW264.7; assay: Toxicity against mouse RAW264.7 cells at 30 uM after 24 hrs in absence of LPS by MTT assay; type: cell-based; conditions: raw264.7, 24 h
[4] = system: RAW264.7; assay: Inhibition of LPS-induced iNOS protein expression in mouse RAW264.7 cells by Western blotting method; type: functional, cell-based
[5] = system: RAW264.7; assay: Effect on alpha-tubulin protein expression in mouse RAW264.7 cells up to 30 uM by Western blotting method; type: ADME, cell-based

SMILES | IC50 [1] [µM] | Activity [2] | Activity [3] | inhibition [4] | Activity [5]
COc1ccccc1[C@@H]1CC(=O)c2c(O)cc(O[C@@H]3O[C@H](CO)[C@@H](O)[C@H](O)[C@H]3O)c(OC)c2O1 | > 30 | Non-toxic | Non-toxic |  | 
COc1c(O[C@@H]2O[C@H](C(=O)O)[C@@H](O)[C@H](O)[C@H]2O)cc(O)c2c1O[C@H](c1ccccc1O)CC2=O | > 30 | Non-toxic | Non-toxic |  | 
O=C(O)[C@H]1O[C@@H](Oc2c(O)cc(O)c3c(=O)cc(-c4ccccc4)oc23)[C@H](O)[C@@H](O)[C@@H]1O | > 30 | Non-toxic | Non-toxic |  | 
COc1c(O)cc(O)c2c(=O)cc(-c3ccc(O)cc3)oc12 [4'-HYDROXYWOGONIN] | 12.5 | Non-toxic | Non-toxic |  | 
O=c1cc(-c2ccc(O)c(O)c2)oc2cc(O)cc(O)c12 [LUTEOLIN] | 7.2 | Non-toxic | Non-toxic | Dose-dependent effect | Non-toxic
COC(=O)[C@H]1O[C@@H](Oc2cc(O)c3c(c2OC)O[C@H](c2cccc(OC)c2)CC3=O)[C@H](O)[C@@H](O)[C@@H]1O | > 30 | Non-toxic | Non-toxic |  | 
COc1cc(O)c2c(c1OC)O[C@H](c1cc(O)ccc1O[C@@H]1O[C@H](CO)[C@@H](O)[C@H](OC(=O)c3ccc(O)cc3)[C@H]1O)CC2=O | > 30 | Non-toxic | Non-toxic |  | 
COc1cc(O)c2c(c1OC)O[C@H](c1c(O)cccc1O[C@@H]1O[C@H](CO)[C@@H](O)[C@H](O)[C@H]1O)CC2=O | > 30 | Non-toxic | Non-toxic |  | 
COC(=O)[C@H]1O[C@@H](Oc2c(O)cc(O)c3c(=O)cc(-c4ccccc4)oc23)[C@H](O)[C@@H](O)[C@@H]1O | > 30 | Non-toxic | Non-toxic |  | 
COC(=O)[C@H]1O[C@@H](Oc2ccccc2[C@@H]2CC(=O)c3c(O)cc(OC)c(OC)c3O2)[C@H](O)[C@@H](O)[C@@H]1O | > 30 | Non-toxic | Non-toxic |  | 
COc1ccc([C@@H]2CC(=O)c3c(O)c(OC)c(OC)c(OC)c3O2)cc1 | 27.8 | Non-toxic | Non-toxic |  | 
COc1cc(O)c2c(c1OC)O[C@H](c1cc(O)ccc1O[C@@H]1O[C@H](COC(C)=O)[C@@H](O)[C@H](O)[C@H]1O)CC2=O | > 30 | Non-toxic | Non-toxic |  | 
